According to patent US4006243A, “Amino-, mercapto- and -oxy-substituted-phenyl and -phenalkyl imidazoles” (Schering Aktiengesellschaft, priority 1974, dated 1977):

Legend:
Type in all cases: cell-based
[1] = test system: Trichophyton mentagrophytes; assay: MIC by the tube test against Trichophyton mentagrophytes (Table I)
From the text: (§1) Table I illustrates the high activity of the compounds of this invention, using as examples the compounds numbered 5-25, which are compared to the known compounds 1-4, viz., the ethyl ester of 1-(1,2,3,4-tetrahydro-1-naphthyl)-imidazole-5-carboxylic acid (Etonam) and the commercially available 2-dimethylamino-6-(β-diethylaminoethoxy)-benzothiazole, dihydrochloride (Dimazol dihydrochloride), as well as N-(2-hydroxybenzyl)-imidazole and N-(4-hydroxybenzyl)-imidazole (Bull. Soc. Chim. France 1973, 1179). The MIC values were determined by the tube test.

Candida albicans = assay: MIC by the tube test against Candida albicans (Table I)
From the text: as §1

Trichophyton rubrum = assay: MIC by the tube test against Trichophyton rubrum (Table I)
From the text: as §1

CCN(CC)CCOc1ccc2nc(N(C)C)sc2c1.Cl.Cl [Compound 2, 2-Dimethylamino-6-(β-diethylaminoethoxy)-benzothiazole, dihydrochloride]
Minimum Inhibitory Concentration MIC against Trichophyton mentagrophytes [1]: inactive | Minimum Inhibitory Concentration MIC against Candida albicans (Candida albicans): inactive | Minimum Inhibitory Concentration MIC against Trichophyton rubrum (Trichophyton rubrum): inactive

CCOC(=O)c1cncn1C1CCCc2ccccc21 (stereo not drawn) [Compound 1, 1-(1,2,3,4-Tetrahydro-1-naphthyl)-imidazole-5-carboxylic Acid Ethyl Ester]
Minimum Inhibitory Concentration MIC against Candida albicans (Candida albicans): inactive

Oc1ccccc1Cn1ccnc1 [Compound 3, N-(2-Hydroxybenzyl)-imidazole]
Minimum Inhibitory Concentration MIC against Trichophyton mentagrophytes [1]: inactive | Minimum Inhibitory Concentration MIC against Candida albicans (Candida albicans): inactive

Oc1ccc(Cn2ccnc2)cc1 [Compound 4, N-(4-Hydroxybenzyl)-imidazole]
Minimum Inhibitory Concentration MIC against Trichophyton mentagrophytes [1]: inactive | Minimum Inhibitory Concentration MIC against Candida albicans (Candida albicans): inactive | Minimum Inhibitory Concentration MIC against Trichophyton rubrum (Trichophyton rubrum): inactive
